This is an account of results in ChEMBL document CHEMBL4371101, “Antiproliferative Cardenolides from the Aerial Parts of Pergularia tomentosa” (J Nat Prod, 2019).

Structures are written as SMILES. Calls of active or inactive are those of the source. The calls are words filed in the database; no cut-off is given here.

Format in all cases: functional, cell-based
One test deals with U-251. Put plainly: Antiproliferative activity against human U251MG cells after 72 hrs by MTT assay. Conditions: U-251, 72 h. A general note: Tetrazolium assays rely on reduction of a dye to a coloured formazan, in cell work by metabolically active cells.
Another test relates to HeLa. In words: Antiproliferative activity against human HeLa cells after 72 hrs by MTT assay.
The next test relates to Calu-1. Put plainly: Antiproliferative activity against human Calu1 cells after 72 hrs by MTT assay. Conditions: Calu-1, 72 h.
The subject of test [1] is PC-3. Put plainly: Antiproliferative activity against human PC3 cells after 72 hrs by MTT assay. The note with it: PC-3, 72 h.
The next test concerns MCF7. Put plainly: Antiproliferative activity against human MCF7 cells after 72 hrs by MTT assay. The note with it: MCF7, 72 h.
For test [2], the system named is PC-3. Put plainly: Antiproliferative activity against human PC3 cells assessed as reduction in BrdU incorporation at 1 uM after 24 hrs by Hoechst staining based microscopic assay. (Dividing cells build labelled thymidine or BrdU into new DNA.)

In general, IC50 refers to the concentration needed to halve the response being measured. Consider `C[C@]12CC[C@H]3[C@@H](CC[C@H]4C[C@H]5O[C@@H]6O[C@H](CO)C[C@H](O)[C@]6(O)O[C@@H]5C[C@@]43C=O)[C@@]1(O)CC[C@@H]2C1=CC(=O)OC1`, for which the IC50 is 5000 nM with U-251; 300 nM in the test with HeLa; 1400 nM in the test on Calu-1; 3200 nM in the test on PC-3 [1]; 1800 nM with MCF7.

Regarding `C[C@]12[C@H](O)C[C@H]3[C@@H](CC[C@H]4C[C@H]5O[C@@H]6O[C@H](CO)C[C@H](O)[C@]6(O)O[C@@H]5C[C@@]43C=O)[C@@]1(O)CC[C@@H]2C1=CC(=O)OC1`, the IC50 was determined as 6000 nM in the test with U-251; 2000 nM in the test with HeLa; 2000 nM with Calu-1; 900 nM with PC-3 [1]; 2800 nM in the test on MCF7. The outcome in the test on PC-3 [2] was Active.

`C[C@]12CC[C@H](O)C[C@@H]1CC[C@@H]1[C@@H]2CC[C@]2(C)[C@@H](C3=CC(=O)OC3)CC[C@]12O`: the IC50 with U-251 came to 6000 nM; with HeLa, 3000 nM; with Calu-1 it was 8000 nM; with PC-3 [1] it was 300 nM; in the test with MCF7, 6000 nM.

With `C[C@@H]1C[C@H](O)[C@]2(O)O[C@@H]3C[C@@]4(C=O)[C@@H](CC[C@@H]5[C@@H]4C[C@@H](O)[C@]4(C)[C@@H](C6=CC(=O)OC6)CC[C@]54O)C[C@H]3O[C@@H]2O1`, the IC50 was 1000 nM in the test on U-251; 600 nM with HeLa; 600 nM in the test with Calu-1; 2100 nM in the test on PC-3 [1]; 200 nM with MCF7.

Turning to `CC(=O)O[C@@H]1C[C@]2(O)[C@@H]3CC[C@H]4C[C@H]5O[C@@H]6O[C@H](C)C[C@H](O)[C@]6(O)O[C@@H]5C[C@]4(C=O)[C@H]3C[C@@H](O)[C@]2(C)[C@H]1C1=CC(=O)OC1`, the IC50 with U-251 amounted to 6500 nM; in the test with HeLa it was 500 nM; with Calu-1 it was 700 nM; in the test with PC-3 [1], 4200 nM; with MCF7 it was 400 nM.

With `C[C@]12CC[C@H]3[C@@H](CC[C@H]4C[C@@H](O[C@@H]5O[C@H](CO)[C@@H](O)[C@H](O)[C@H]5O)CC[C@@]43CO)[C@@]1(O)CC[C@@H]2C1=CC(=O)OC1`, the IC50 in the test on U-251 stood at 6000 nM; with HeLa, 300 nM; in the test with Calu-1, 6000 nM; in the test on PC-3 [1] it was 1000 nM; in the test with MCF7, 8000 nM.

In the case of `C[C@]12[C@H](O)C[C@H]3[C@@H](CC[C@H]4C[C@H]5O[C@@H]6O[C@H](CO)C[C@@H](O)[C@]6(O)O[C@@H]5C[C@@]43CO)[C@@]1(O)CC[C@@H]2C1=CC(=O)OC1` [GHALAKINOSIDE], the IC50 with U-251 came to 5200 nM; in the test with HeLa, 900 nM; in the test with Calu-1, 700 nM; with PC-3 [1] it was 4200 nM; in the test with MCF7, 600 nM.

Take `C[C@@H]1C[C@@H](O)[C@]2(O)O[C@@H]3C[C@@]4(CO)[C@@H](CC[C@@H]5[C@@H]4C[C@@H](O)[C@]4(C)[C@@H](C6=CC(=O)OC6)CC[C@]54O)C[C@H]3O[C@@H]2O1`: the IC50 with U-251 came to 8000 nM; in the test on HeLa, 7000 nM; in the test on Calu-1, 6000 nM; in the test on PC-3 [1] it was 600 nM; in the test on MCF7, 5000 nM.

In the case of `C[C@@H]1C[C@@H](O[C@@H]2O[C@H](CO)[C@@H](O)[C@H](O)[C@H]2O)[C@]2(O)O[C@@H]3C[C@@]4(C=O)[C@@H](CC[C@@H]5[C@@H]4CC[C@]4(C)[C@@H](C6=CC(=O)OC6)CC[C@]54O)C[C@H]3O[C@@H]2O1`, the half-inhibitory concentration (IC50) was 4400 nM in the test on U-251; 600 nM in the test on HeLa; 300 nM in the test with Calu-1; 1000 nM in the test with PC-3 [1]; 200 nM in the test on MCF7.

Take `C[C@@H]1C[C@H](O)[C@]2(O)O[C@@H]3C[C@@]4(C=O)[C@@H](CC[C@@H]5[C@@H]4C[C@@H](O)[C@]4(C)[C@@H](C6=CC(=O)OC6)[C@H](O)C[C@]54O)C[C@H]3O[C@@H]2O1`: the IC50 in the test on U-251 was found to be 1500 nM; in the test with HeLa, 2300 nM; with Calu-1, 4300 nM; in the test on PC-3 [1], 600 nM; in the test on MCF7, 7000 nM. Further, the outcome with PC-3 [2] was Active.

For the compound `COc1cc(/C=C/C(=O)OC[C@H]2O[C@@H](O[C@H]3CC[C@@]4(C)[C@@H](CC[C@@H]5[C@@H]4CC[C@]4(C)[C@@H](C6=CC(=O)OC6)CC[C@]54O)C3)[C@H](O)[C@@H](O)[C@@H]2O)ccc1O`, the IC50 worked out at 5800 nM in the test with U-251; 4500 nM in the test with HeLa; 6000 nM in the test on Calu-1; 300 nM in the test with PC-3 [1]; 200 nM with MCF7.

In the case of `C[C@]12[C@H](O)C[C@H]3[C@@H](CC[C@H]4C[C@H]5O[C@@H]6O[C@H](CO)C[C@@H](O)[C@]6(O)O[C@@H]5C[C@@]43C=O)[C@@]1(O)CC[C@@H]2C1=CC(=O)OC1`, the IC50 with U-251 worked out at 5500 nM; with HeLa, 300 nM; with Calu-1, 3700 nM; in the test with PC-3 [1], 8900 nM; in the test with MCF7 it was 2000 nM.

With `C[C@@H]1C[C@@H](O)[C@]2(O)O[C@@H]3C[C@@]4(C=O)[C@@H](CC[C@@H]5[C@@H]4C[C@@H](O)[C@]4(C)[C@@H](C6=CC(=O)OC6)CC[C@]54O)C[C@H]3O[C@@H]2O1`, the IC50 in the test with U-251 was found to be 5300 nM; in the test with HeLa, 2500 nM; in the test with Calu-1, 7000 nM; in the test on PC-3 [1] it was 300 nM; in the test on MCF7, 6000 nM. Further, the result in the test with PC-3 [2] was Active.

`CC(=O)O[C@@]12CO[C@@H]1C[C@H](O)[C@@]1(C)C(=O)[C@H](O)C3=C(C)[C@@H](OC(=O)[C@H](O)[C@@H](NC(=O)OC(C)(C)C)c4ccccc4)C[C@@](O)([C@@H](OC(=O)c4ccccc4)[C@H]21)C3(C)C` [DOCETAXEL ANHYDROUS]: the IC50 came to 0.7 nM in the test on U-251; 0.3 nM with HeLa; 0.4 nM in the test on Calu-1; 0.6 nM with PC-3 [1]; 0.5 nM in the test on MCF7.

`C[C@]12CC[C@H](O[C@@H]3O[C@H](CO)[C@@H](O)[C@H](O)[C@H]3O)C[C@@H]1CC[C@@H]1[C@@H]2CC[C@]2(C)[C@@H](C3=CC(=O)OC3)CC[C@]12O` [DESGLUCOUZARIN]: the IC50 with U-251 is 8000 nM; in the test with HeLa it was 600 nM; in the test on Calu-1, 6500 nM; in the test on PC-3 [1], 300 nM; with MCF7, 6000 nM.

As to `C[C@]12CC[C@H]3[C@@H](CC[C@H]4C[C@@H](O)CC[C@@]43CO)[C@@]1(O)CC[C@@H]2C1=CC(=O)OC1` [COROGLAUCIGENIN], the IC50 in the test with U-251 worked out at 5000 nM; with HeLa it was 4200 nM; in the test on Calu-1, 5800 nM; with PC-3 [1] it was 400 nM; with MCF7 it was 7000 nM.

Turning to `C[C@]12CC[C@H]3[C@@H](CC[C@H]4C[C@H]5O[C@@H]6O[C@H](CO)C[C@@H](O)[C@]6(O)O[C@@H]5C[C@@]43CO)[C@@]1(O)CC[C@@H]2C1=CC(=O)OC1`, the IC50 in the test on U-251 stood at 1200 nM; in the test on HeLa, 300 nM; in the test on Calu-1, 600 nM; in the test on PC-3 [1] it was 3000 nM; in the test on MCF7 it was 200 nM.

`C[C@@H]1C[C@@H](O)[C@]2(O)O[C@@H]3C[C@@]4(C=O)[C@@H](CC[C@@H]5[C@@H]4CC[C@]4(C)[C@@H](C6=CC(=O)OC6)CC[C@]54O)C[C@H]3O[C@@H]2O1` [CALACTIN]: the IC50 in the test with U-251 is 900 nM; in the test with HeLa it was 200 nM; in the test with Calu-1, 500 nM; in the test with PC-3 [1], 3700 nM; in the test on MCF7, 200 nM.

For the compound `C[C@]12[C@H](O)C[C@H]3[C@@H](CC[C@H]4C[C@@H](O)CC[C@@]43CO)[C@@]1(O)CC[C@@H]2C1=CC(=O)OC1`, the IC50 amounted to 5000 nM with U-251; 900 nM in the test with HeLa; 1300 nM with Calu-1; 8400 nM in the test with PC-3 [1]; 2500 nM in the test with MCF7.
